Values quoted from earlier work, collected in patent US20070269473A1, “Microbial Encapsulation” (priority 2004, published 2007).

Conditions: octanol/water; carriers

Compound | logP(o/w)
1,3,5-trimethyl-Benzene (Mesitylene) | 3.6
Acetophenone (1-phenyl-Ethanone) | 1.7
COC(=O)c1ccccc1 [Methyl benzoate] | 1.8
